Results taken from patent publication US7053123B2, “Substituted (e)-styryl benzylsulfones for treating proliferative disorders” (Temple University-of the Commonwealth System of Higher …, priority 2000, dated 2006).

Legend:
Assay type in all cases: cell-based
[1] = tested on: HFL normal human fibroblasts; assay: Normal fibroblast viability assay (Trypan blue exclusion), HFL; details: normal cells HFL; treated at 100-1000 nM; 96 hours
Excerpt: (§1) The effect of the Example 13 compound on the growth of normal fibroblasts and on tumor cells of prostate, colon, lung, brain, pancreas and breast origin was examined utilizing the following cell lines: prostate carcinoma cell line DU-145; colorectal carcinoma cell line DLD-1; non-small cell lung carcinoma cell line H157; pancreatic carcinoma cell line MIA-Pa-Ca-2; glioblastoma cell line U87; and breast adenocarcinoma cell line BT-20. BT-20 is an estrogen-unresponsive cell line. NIH/3T3 and HFL are normal murine and human fibroblasts, respectively. BT-20, DLD-1 and H157 were grown in Dulbecco's modified Eagle's medium (DMEM) containing 10% fetal bovine serum supplemented with penicillin and streptomycin. DU145 was cultured in RPMI with 10% fetal bovine serum containing penicillin and streptomycin. NIH3T3 and HFL cells were grown in DMEM containing 10% calf serum supplemented with penicillin and streptomycin. Cells were plated at density levels of 1.0×10^5 cells per well in six-well plates. Cell cultures were maintained at 37° C. in a humidified atmosphere of 5% CO2.
(§2) Cells were treated with the Example 13 compound at concentrations of 100, 250, 500 and 1000 nM. Cell viability was determined after 96 hours by the Trypan blue exclusion method. […] The drug G150 (the concentration resulting in 50% growth inhibition) was calculated as 200 nM for the MIA-Pa-Ca-2 cell line.

[2] = tested on: NIH/3T3 normal murine fibroblasts; assay: Normal fibroblast viability assay (Trypan blue exclusion), NIH 3T3; details: normal cells NIH 3T3; treated at 100-1000 nM; 96 hours
Excerpt: as §1, §2

[3] = tested on: pancreatic carcinoma cell line MIA-Pa-Ca-2; assay: Tumor cell viability assay (Trypan blue exclusion), MIA-Pa-Ca-2; details: MIA-Pa-Ca-2 cell line, 96 hours, vs DMSO-treated cells, read-out: G150 (the concentration resulting in 50% growth inhibition)
Excerpt: as §1, §2

[4] = tested on: breast adenocarcinoma cell line BT-20; assay: Tumor cell viability assay (Trypan blue exclusion), BT-20; details: BT20 cell line, tested at 5, 10 and 20 μM, 96 hours, read-out: G150 (the concentration resulting in 50% growth inhibition)
Excerpt: as §1, with “NIH3T3 and HFL cells were grown in DMEM containing 10% calf serum supplemented with penicillin and streptomycin. Cells were plated at density levels of 1.0×10^5 cells per well in six-well plates. Cell cultures were maintained at 37° C. in a humidified atmosphere of 5% CO2.” left out
as §2
(§3) The procedure of Example 40 was followed for the compound of Example 37, on cell lines DLD-1, H157 and BT20, at 5, 10 and 20 μM concentrations. The drug G150 was calculated for each cell line as follows: DLD, 8 μM; H157, 15 μM; and BT20, 15 μM.

[5] = tested on: colorectal carcinoma cell line DLD-1; assay: Tumor cell viability assay (Trypan blue exclusion), DLD-1; details: DLD-1 cell line, tested at 5, 10 and 20 μM, 96 hours, read-out: G150 (the concentration resulting in 50% growth inhibition)
Excerpt: as §1, with “NIH3T3 and HFL cells were grown in DMEM containing 10% calf serum supplemented with penicillin and streptomycin. Cells were plated at density levels of 1.0×10^5 cells per well in six-well plates. Cell cultures were maintained at 37° C. in a humidified atmosphere of 5% CO2.” left out
as §2, §3

[6] = tested on: non-small cell lung carcinoma cell line H157; assay: Tumor cell viability assay (Trypan blue exclusion), H157; details: tested at 5, 10 and 20 μM, 96 hours, read-out: G150 (the concentration resulting in 50% growth inhibition)
Excerpt: as §1, with “NIH3T3 and HFL cells were grown in DMEM containing 10% calf serum supplemented with penicillin and streptomycin. Cells were plated at density levels of 1.0×10^5 cells per well in six-well plates. Cell cultures were maintained at 37° C. in a humidified atmosphere of 5% CO2.” left out
as §2, §3

Molecule | cell death [1] | growth inhibition [1] | cell death [2] | growth inhibition [2] | IC50 [3] | IC50 [4] | IC50 [5] | IC50 [6]
(E)-2,6-Dimethoxystyryl-4-methoxybenzylsulfone [Example 13] | no appreciable cell death | 5% | no appreciable cell death | 5% | 0.2 µM |  |  | 
O=[N+]([O-])c1ccccc1/C=C/S(=O)(=O)Cc1ccc(Cl)cc1Cl [Example 37, (E)-2-Nitrostyryl-2,4-dichlorobenzylsulfone] |  |  |  |  |  | 15 µM | 8 µM | 15 µM
